Test results published in publication PMC9085437, “Silica-coated magnetic iron oxide functionalized with hydrophobic polymeric ionic liquid: a promising nanoscale sorbent for simultaneous extraction of antidiabetic drugs from human plasma prior to their quantitation by HPLC” (RSC Advances, 2018).

Assay: Pharmacokinetic assessment in healthy fed male volunteers after oral tablet administration, plasma quantified by MSPE-HPLC-UV
Settings: human, in vivo, 25 mg
Protocol: The chromatographic analysis was conducted using a Waters alliance e2695, (Massachusetts, USA) system which was equipped with a Waters 2487 dual wavelength detector and C18 TMS endcapping/reversed phase column (Luna 5 μm C18 100 A HPLC column 250 × 4.6 mm id, Phenomenex Co, Torrance, CA) at 40 °C. The mobile phase which being used in an isocratic mode was composed of potassium dihydrogen phosphate and sodium dodecyl sulfate (0.01 M, pH 6): acetonitrile (55 : 45, v/v) and passed through column with flow rate of 1 mL min^−1 (the mobile phase was filtered and degassed daily prior to use in HPLC). […] The column effluent was monitored at UV wavelength of 215 nm and the injection volume was 20.0 μL. The mobile phase was filtered by passing it through a 0.2 μm membrane filter (Millipore, Bedford, MA, USA).
Every frozen human plasma were firstly thawed at room temperature and placed into a sample glass tube. Preparation of plasma before MSPE method was based on protein precipitation with aid of acetonitrile. In this regard, the plasma (1.9 mL) was fortified with 100.0 μL of required concentrations of analytes followed by mixing with 2.0 mL ACN. The obtained solution was vortexed for 1 min and centrifuged for 5 min at 3500 rpm. Then, ACN content of the clear supernatant was evaporated under nitrogen stream and the remaining sample was transferred into 4.0 mL buffer solution at pH 4.0. Sample volume after evaporation under nitrogen stream was about 2 mL and total sample volume after transferring to 4 mL buffer solution was about 6 mL. 5.0 mL of the deproteinized samples containing target drugs were subjected to the extraction procedure for subsequent analysis.
Initially, 5.0 mL of the deproteinized human plasma (initial volume of spiked plasma sample 2.0 mL) was placed into a glass tube and 10.0 mg of magnetic Fe3O4@SiO2@PIL was added to the sample. The mixture was sonicated for 4 min to totally disperse the magnetic sorbent through the matrix and complete the extraction of target drugs at room temperature. Analyte-loaded sorbent was collected from the sample solution by exposing the glass tube to a powerful neodymium–iron–boron (Nd–Fe–B) magnet (5 × 5 × 4 cm, 0.8 tesla), and the upper phase was poured out. Later, the adsorbed analytes were eluted by 1.0 mL of acetonitrile (0.5 mL every time and washed two times) to desorb the analytes. Elution process was completed during 2 min in the ultrasonic bath. The magnet was used again to separate the sorbent and then the total volume of eluted solution was collected and evaporated to dryness under stream of the nitrogen. The dry residue was re-dissolved in 100.0 μL of mobile phase and stirred for 1 min. Finally, 20.0 μL of this solution was injected into the HPLC-UV system for analysis.
Eight healthy fed male volunteers within the age range of 28–42 years old were enrolled in these studies. […] The plasma samples were immediately transferred into a clean polypropylene tube and stored at −18 °C until being used. All assessments were approved by “The Committee For Research Ethics” of Department of Pharmacy and Pharmaceutical Sciences Research Center, Tehran University of Medical Sciences. In the next experiments, a single oral dose administration of Jardiance tablet (25 mg EMPA) was performed to four volunteers and the blood samples were collected and treated as the previous experiments. Each real sample was extracted at optimal conditions by the proposed procedure and the mean plasma concentration–time curve was obtained.

SMILES: OC[C@H]1O[C@@H](c2ccc(Cl)c(Cc3ccc(O[C@H]4CCOC4)cc3)c2)[C@H](O)[C@@H](O)[C@@H]1O [EMPA, empagliflozin]
- AUC(0-inf): 1430 ± 151 ng·h/mL
- AUC(0-t): 1400 ± 122 ng·h/mL
- Cmax: 216 ± 44.1 ng/mL
- Tmax: 2.9 ± 0.3 h
- half-life: 7.2 ± 1.1 h
